Reference: patent publication US20260234139A1, “PGDH INHIBITORS AND METHODS OF MAKING AND USING” (Epirium Bio Inc., priority 2023, published 2026)

Assays:
A549 = A549 EC50 (cell assay, method not described); assay type: cell-based; conditions: Homo sapiens, A549, A549
15-PGDH/HPGD = biological target: T1, 15-PGDH/HPGD (Homo sapiens, UniProt P15428); assay: hPGDH inhibitor screening biochemical assay; conditions: 10 nM enzyme, 15 μM Prostaglandin E2, 0.25 mM NAD, fluorescence ex/em 340/485 nm
T1 construct: purchased R&D System 5660-DH
T1 sequence (P15428 1-266): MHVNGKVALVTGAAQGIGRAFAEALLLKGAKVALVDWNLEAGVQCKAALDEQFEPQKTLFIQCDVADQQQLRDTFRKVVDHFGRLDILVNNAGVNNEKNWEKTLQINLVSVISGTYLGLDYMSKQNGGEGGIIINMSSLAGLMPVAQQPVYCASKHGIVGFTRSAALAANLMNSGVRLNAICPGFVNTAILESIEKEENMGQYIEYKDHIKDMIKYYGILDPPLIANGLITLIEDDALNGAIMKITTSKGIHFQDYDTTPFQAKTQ
Summary of the method: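 Recombinant 15-PGDH (10 nM) preincubated with compound 10 min at 37° C, then 15 μM PGE2 and 0.25 mM NAD⁺ added for 10 min at room temperature in 50 mM Tris-HCl pH 7.5, 0.01% Tween 20. NADH fluorescence at ex/em 340/485 nm; 10-point dose response.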

| SMILES | EC50 (A549) | IC50 (15-PGDH/HPGD) |
| --- | --- | --- |
| CC(C)OC[C@@H](O)c1cnc2c(ccn2-c2cccc(-c3nnc[nH]3)c2)c1 [Compound 29B] | < 100 nM | < 100 nM |
| O=C(O)c1ccc(-n2ncc3cc(C(O)C4CC(F)(F)C4)cnc32)cc1 (single isomer, unassigned) [Compound 45A] | 100 to 1000 nM | < 100 nM |
| O[C@@H](c1cnc2c(cnn2-c2cccc(-c3nnc[nH]3)c2)c1)C1CCOCC1 [Compound 52B] | < 100 nM | < 100 nM |
| CCCCC(C)(O)c1cnc2c(ccn2-c2cc(Cl)cc(-c3nnc[nH]3)c2)c1 (stereo not shown) [Compound 15] | ≥ 1000 nM | 100 to 1000 nM |
| O[C@H](c1cnc2c(cnn2-c2cccc(-c3nnc[nH]3)c2)c1)C1CC2CC2C1 (stereo partly shown) [Compound 50B] | < 100 nM | < 100 nM |
| COC1([C@H](O)c2cnc3c(cnn3-c3cccc(-c4nnc[nH]4)c3)c2)CC1 [Compound 59B] | ≥ 1000 nM | 100 to 1000 nM |
| O[C@H](c1cnc2c(cnn2-c2cccc(-c3nnc[nH]3)c2)c1)C1C2CCCCC21 (stereo partly shown) [Compound 51A] | 100 to 1000 nM | < 100 nM |
| CC(C)NC[C@@H](O)c1cnc2c(cnn2-c2cccc(-c3nnc[nH]3)c2)c1 [Compound 27B, (S)-1-(1-(3-(4H-1,2,4-triazol-3-yl)phenyl)-1H-pyrazolo[3,4-b]pyridin-5-yl)-2-(isopropylamino) ethan-1-ol] | 100 to 1000 nM | < 100 nM |
| CC(C)CC[C@H](O)c1cnc2c(ccn2-c2ccc(C(=O)O)cc2)n1 [Compound 40A] | < 100 nM | < 100 nM |
| CC(C)OC[C@H](O)c1cnc2c(ccn2-c2ccc(C(=O)O)cc2)n1 [Compound 49A] | ≥ 1000 nM | < 100 nM |
| O[C@@H](c1cnc2c(ccn2-c2cc(Cl)cc(-c3nnc[nH]3)c2)c1)C1CCC(F)(F)CC1 [Compound 12A] | ≥ 1000 nM | < 100 nM |
| CC(C)OC[C@@H](O)c1cnc2c(cnn2-c2ccc(C(=O)O)cc2)c1 [Compound 48B] | < 100 nM | < 100 nM |
| O[C@H](c1cnc2c(cnn2-c2ccc3nc(N4CCOCC4)nn3c2)c1)C1COC1 [Compound 64A] | 100 to 1000 nM | 100 to 1000 nM |
| CCCC[C@@H](O)c1cnc2c(ccn2-c2cccc(-c3nnc[nH]3)c2)n1 [Compound 2B] | 100 to 1000 nM | < 100 nM |

Next, values leading:

| EC50 (A549) | IC50 (15-PGDH/HPGD) | SMILES |
| --- | --- | --- |
| ≥ 1000 nM | ≥ 1000 nM | CSc1cccc(-n2ncc3cc([C@H](O)COC4CCC4)cnc32)c1 [Compound 122B] |
| ≥ 1000 nM | < 100 nM | O=C(O)c1ccc(-n2ncc3cc([C@H](O)COC4CCC4)cnc32)cn1 [Compound 96A] |
| ≥ 1000 nM | ≥ 1000 nM | O=C(O)c1ccc(-n2ncc3cc([C@@H](O)C4(OCC(F)F)CC4)cnc32)cc1 [Compound 72B] |
| < 100 nM | < 100 nM | CNC(=O)c1ccc(-n2ncc3cc([C@H](O)COC(C)C)cnc32)cc1 [Compound 67A] |
| 100 to 1000 nM | < 100 nM | Cc1nn(-c2ccc(C(=O)O)cc2)c2ncc([C@H](O)COC3CC3)cc12 [Compound 126B] |
| < 100 nM | < 100 nM | CC(C)OC[C@@H](O)c1cnc2c(cnn2-c2ccc(CCCC(=O)O)c(F)c2)c1 [Compound 77A] |
| ≥ 1000 nM | < 100 nM | O=C(O)[C@H]1CCN(c2ccc(-n3ncc4cc([C@@H](O)COC5CCC5)cnc43)cc2)C1 [Compound 87A] |
| 100 to 1000 nM | < 100 nM | O[C@H](c1cnc2c(cnn2-c2cccc(-c3nnc[nH]3)c2)c1)C1(OCC(F)F)CC1 [Compound 73A] |
| ≥ 1000 nM | 100 to 1000 nM | O=C(O)c1ccc(-n2ncc3cc([C@@H](O)COCC4CC4)ccc32)cc1 [Compound 114A] |
